The values that follow come from ChEMBL document CHEMBL1201862, “PubChem BioAssay data set” (2004).

SMILES strings stand for the structures.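 Cultured in 96-well plates, cells were exposed to test compound for 48 hours across five concentrations. Here, GI50 denotes the concentration required for 50% inhibition of growth.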 The source made the active and inactive calls. No stated cut-off is given here; in the data, active = GI50 up to about 1.1 µM and inactive = higher. Some results are limits rather than exact numbers.

Among the test systems are A498; DU-145; HL-60; HOP-62; HT-29; Hs-578T; NCI/ADR-RES; OVCAR-4; OVCAR-5; SF-539; SN12C; SNB-19; U-251; UACC-62; UO-31; NCI-H460; OVCAR-8; TK-10; UACC-257.
Holding throughout (test): NCI anticancer screen, dose series, 48 h

As for `CCOC(=O)c1ccc(NCC#CCN2CCOCC2)cc1`, the GI50 in the test with A498 is > 100 µM (inactive); in the test on DU-145 it was > 100 µM (inactive); with HL-60 it was 48.1 µM (inactive); with HOP-62, > 100 µM (inactive); in the test on HT-29 it was 69.2 µM (inactive); in the test with Hs-578T it was > 100 µM (inactive). Moreover, the GI50 with NCI/ADR-RES was > 100 µM (inactive); with OVCAR-4, > 100 µM (inactive); in the test on OVCAR-5 it was 19.9 µM (inactive); in the test on SF-539, > 100 µM (inactive); with SN12C, > 100 µM (inactive); with SNB-19, > 100 µM (inactive). The GI50 in the test on U-251 was > 100 µM (inactive); in the test with UACC-62, 34.8 µM (inactive); in the test with UO-31, > 100 µM (inactive).

`Cc1ccc(S(=O)(=O)Oc2nc3ccccc3nc2OS(=O)(=O)c2ccc(C)cc2)cc1`: the GI50 with A498 is > 100 µM (inactive); with DU-145 it was > 100 µM (inactive); with HL-60, 32.3 µM (inactive); with HT-29, > 100 µM (inactive); with Hs-578T, > 100 µM (inactive); in the test on NCI-H460, > 100 µM (inactive). Besides, the GI50 in the test with NCI/ADR-RES, in the test on OVCAR-5, with OVCAR-8, with SF-539, in the test with SN12C and in the test on SNB-19 was > 100 µM (inactive) in each case. Moreover, the GI50 in the test with TK-10, in the test on U-251, with UACC-257, in the test on UACC-62 and with UO-31 was > 100 µM (inactive) in each case.

For `O=C1C(=Cc2ccco2)C(=O)C2CCCCC12` (configuration not stated), the GI50 in the test on A498, in the test with DU-145, in the test on HOP-62, in the test with HT-29, in the test with Hs-578T and with NCI-H460 was > 100 µM (inactive) in each case. The GI50 in the test with NCI/ADR-RES, with OVCAR-4, with OVCAR-5, with OVCAR-8, with SF-539 and in the test on SN12C was > 100 µM (inactive) each time. The GI50 in the test with SNB-19, in the test with TK-10, in the test on U-251, with UACC-257 and with UACC-62 was > 100 µM (inactive) each time.

As for `CCCN(CCC)C(=O)c1c(Cl)c2cccnc2n2c(C)cnc12`, the GI50 with A498 is 69.5 µM (inactive); in the test with DU-145, > 100 µM (inactive); with HL-60, 23.1 µM (inactive); with HOP-62, > 100 µM (inactive); with HT-29, > 100 µM (inactive); in the test on Hs-578T, > 100 µM (inactive). Moreover, the GI50 was 76.9 µM (inactive) in the test with NCI-H460; 50.4 µM (inactive) in the test with NCI/ADR-RES; > 100 µM (inactive) in the test on OVCAR-4; > 100 µM (inactive) in the test on OVCAR-5; > 100 µM (inactive) with OVCAR-8; > 100 µM (inactive) in the test with SF-539. The GI50 in the test with SN12C is > 100 µM (inactive); in the test with SNB-19, > 100 µM (inactive); in the test with TK-10 it was > 100 µM (inactive); in the test with UACC-257, 95.3 µM (inactive); in the test on UACC-62, 52.7 µM (inactive); with UO-31 it was 38.8 µM (inactive).

As for `CN(C)c1ccc(/N=N/c2ccc3[nH]cnc3c2)cc1`, the GI50 in the test on A498 was 20.4 µM (inactive); in the test with DU-145, 27.4 µM (inactive); in the test with HL-60, 14.7 µM (inactive); in the test with HT-29, 16.1 µM (inactive); in the test on Hs-578T, 34.7 µM (inactive); with NCI-H460, 18.8 µM (inactive). The GI50 with NCI/ADR-RES is 41 µM (inactive); in the test on OVCAR-4, 24.2 µM (inactive); with OVCAR-5 it was 26.5 µM (inactive); in the test with OVCAR-8, 38.4 µM (inactive); in the test on SF-539, 17.8 µM (inactive); in the test on SN12C, 22 µM (inactive). In addition, the GI50 is 41.8 µM (inactive) with SNB-19; 22.5 µM (inactive) in the test on TK-10; 24.5 µM (inactive) in the test with U-251; 23 µM (inactive) with UACC-257; 24.8 µM (inactive) in the test on UACC-62; 28.4 µM (inactive) in the test with UO-31.

As for `O=C(OCc1ccc([N+](=O)[O-])cc1)N1c2ccccc2[C@@]23O[C@]24CCC[C@H]3C#C/C=C\C#C[C@H]14`, the GI50 is > 100 µM (inactive) in the test on A498; > 100 µM (inactive) in the test on DU-145; 25 µM (inactive) in the test with HL-60; > 100 µM (inactive) in the test with HT-29; 58.9 µM (inactive) in the test on Hs-578T; 1.17 µM (inactive) with NCI-H460. Further, the GI50 was 43.6 µM (inactive) in the test with NCI/ADR-RES; > 100 µM (inactive) in the test on OVCAR-4; > 100 µM (inactive) in the test with OVCAR-5; > 100 µM (inactive) in the test with OVCAR-8; > 100 µM (inactive) in the test with SF-539; > 100 µM (inactive) in the test on SN12C. The GI50 in the test on SNB-19, with TK-10, in the test on U-251, with UACC-257, in the test on UACC-62 and in the test on UO-31 was > 100 µM (inactive) each time.

Take `O=Cc1ccc(Oc2c3ccccc3nc3ccccc23)cc1`: the GI50 in the test with A498 was 0.869 µM (active); in the test with DU-145 it was 3.84 µM (inactive); with HL-60, < 0.01 µM (active); with HOP-62, 14.4 µM (inactive); in the test with HT-29, 2.07 µM (inactive); with Hs-578T, 2.53 µM (inactive). The GI50 in the test on NCI-H460 was 16 µM (inactive); in the test on NCI/ADR-RES, 10.2 µM (inactive); in the test on OVCAR-4, 4.63 µM (inactive); with OVCAR-5, 4.29 µM (inactive); with OVCAR-8 it was 5.75 µM (inactive); in the test on SF-539 it was 1.76 µM (inactive). For the same molecule, the GI50 with SN12C was 2.85 µM (inactive); in the test on SNB-19, 16.4 µM (inactive); with TK-10 it was 6.03 µM (inactive); with U-251, 5.27 µM (inactive); in the test with UACC-257, 0.346 µM (active); in the test with UACC-62, 0.46 µM (active).

For the molecule `COc1c2c(cc3nc4ccccc4nc13)CC[C@H](NC(C)=O)c1cc(=O)c(SC)ccc1-2`, the GI50 was 7.62 µM (inactive) in the test on A498; 2.47 µM (inactive) in the test with DU-145; 11.9 µM (inactive) with HOP-62; 1.04 µM (active) in the test with HT-29; 0.126 µM (active) in the test with Hs-578T; 0.933 µM (active) in the test on NCI-H460. Moreover, the GI50 in the test with NCI/ADR-RES was 12.5 µM (inactive); in the test on OVCAR-4, 4.27 µM (inactive); in the test with OVCAR-5, 24.5 µM (inactive); in the test on OVCAR-8, 1.63 µM (inactive); in the test with SF-539, 0.304 µM (active); with SN12C, 2.79 µM (inactive). Besides, the GI50 with SNB-19 is 0.446 µM (active); in the test with TK-10, 8.07 µM (inactive); in the test on U-251 it was 0.353 µM (active); in the test with UACC-257, 1.59 µM (inactive); in the test with UACC-62, 0.437 µM (active); in the test on UO-31 it was 5.09 µM (inactive).

As to `CC(C(=O)c1ccccc1)C(c1ccccc1)N1CCOCC1` (configuration not stated), the GI50 with A498 is > 100 µM (inactive); in the test on DU-145 it was > 100 µM (inactive); in the test on HL-60, 49.1 µM (inactive); in the test with HOP-62, > 100 µM (inactive); in the test on HT-29, > 100 µM (inactive); in the test with Hs-578T, > 100 µM (inactive). The GI50 in the test with NCI-H460, with NCI/ADR-RES, in the test on OVCAR-4, in the test on OVCAR-5, in the test with OVCAR-8 and in the test on SF-539 was > 100 µM (inactive) throughout. Also, the GI50 in the test on SN12C, in the test with SNB-19, in the test on TK-10, in the test with U-251, in the test on UACC-257 and in the test on UACC-62 was > 100 µM (inactive) each time.

As to `O=C(Cc1ccccc1)NN1C(=O)/C(=C\c2ccccc2)S/C1=N\c1ccccc1`, the GI50 with A498, with DU-145, with HOP-62, in the test on HT-29, with Hs-578T and with NCI-H460 was > 100 µM (inactive) each time. Also, the GI50 with NCI/ADR-RES, with OVCAR-4, in the test with OVCAR-5, in the test with OVCAR-8, with SF-539 and with SN12C was > 100 µM (inactive) throughout. Besides, the GI50 with SNB-19, in the test with TK-10, in the test on U-251, in the test with UACC-257, with UACC-62 and in the test with UO-31 was > 100 µM (inactive) throughout.

For the molecule `COc1ccc(-n2cnc3c(N)nc(N)nc32)cc1`, the GI50 in the test with A498 is 54.8 µM (inactive); with DU-145 it was > 100 µM (inactive); with HOP-62 it was > 100 µM (inactive); with HT-29 it was > 100 µM (inactive); with Hs-578T it was 25.6 µM (inactive); in the test with NCI/ADR-RES, > 100 µM (inactive). The GI50 in the test on OVCAR-4 is > 100 µM (inactive); with OVCAR-5, > 100 µM (inactive); in the test on OVCAR-8, > 100 µM (inactive); in the test with SF-539 it was 49.5 µM (inactive); in the test on SN12C, 53.6 µM (inactive); in the test on SNB-19, > 100 µM (inactive). Further, the GI50 in the test with TK-10 is 85.7 µM (inactive); in the test on U-251, > 100 µM (inactive); in the test on UACC-257 it was > 100 µM (inactive); with UACC-62 it was 30.8 µM (inactive); in the test with UO-31, 65 µM (inactive).
